Laboratory results published in article PMC6274455, “Isolation of α-Amylase Inhibitors from Kadsura longipedunculata Using a High-Speed Counter-Current Chromatography Target Guided by Centrifugal Ultrafiltration with LC-MS” (Molecules, 2016).
Like-named read-outs stand apart in the source and are kept apart here.

Biological target: T1, α-amylase (Sus scrofa, UniProt P00690)
T1 construct: gene AMY2
T1 sequence (P00690 16-511): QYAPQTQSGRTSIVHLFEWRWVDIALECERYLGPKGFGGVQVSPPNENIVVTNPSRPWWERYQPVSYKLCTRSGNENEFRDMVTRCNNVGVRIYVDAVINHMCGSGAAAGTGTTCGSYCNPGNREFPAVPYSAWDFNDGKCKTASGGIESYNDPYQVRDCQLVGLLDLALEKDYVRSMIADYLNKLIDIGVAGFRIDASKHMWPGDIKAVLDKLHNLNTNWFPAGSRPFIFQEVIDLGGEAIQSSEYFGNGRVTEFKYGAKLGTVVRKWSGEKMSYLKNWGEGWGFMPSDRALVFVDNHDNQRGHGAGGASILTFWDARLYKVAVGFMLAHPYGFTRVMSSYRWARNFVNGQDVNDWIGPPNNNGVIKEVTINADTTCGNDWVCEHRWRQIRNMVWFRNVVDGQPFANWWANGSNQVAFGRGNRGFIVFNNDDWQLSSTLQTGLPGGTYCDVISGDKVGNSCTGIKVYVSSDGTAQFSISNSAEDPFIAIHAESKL
Test: α-amylase inhibition assay of isolated compound; also captured by centrifugal ultrafiltration LC-MS with active but not denatured enzyme
Type: biochemical

Structure (SMILES): C[C@@H]1O[C@@H](Oc2c(-c3ccc(O)c(O)c3)oc3cc(O)cc(O)c3c2=O)[C@H](O)[C@H](O)[C@H]1O [compound 1, quercetin-3-O-rhamnoside]
- IC50: 28.8 µM

Structure (SMILES): O=C(O)c1ccc(O)c(O)c1 [compound 2, protocatechuic acid]
- IC50 (read-out: IC50): 12.5 µM
